From patent US20230085307A1, “PYRIDAZINONE COMPOUND AND HERBICIDE” (NISSAN CHEMICAL CORPORATION, priority 2019, published 2023)

Key:
barnyard grass [1] = test: Test Example 3: herbicidal effect by foliage application, Wagner pot (Table 18, symbol H); format: in vivo, barnyard grass (Echinochloa crus-galli); details: 320 g/ha
In short: (§1)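 Plants were sown in alluvial soil held under 0.1–0.5 cm standing water and grown 14 days in a greenhouse at 25–30 °C. An emulsifiable formulation, water-diluted to the set dose, was then sprayed onto the foliage, and effects were scored three weeks later using previously defined criteria.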

Chinese sprangletop = test: Test Example 3: herbicidal effect by foliage application, Wagner pot (Table 18, symbol D); format: in vivo, chinese sprangletop (Leptochloa chinensis); details: 320 g/ha
In short: as §1

rice flat sedge = test: Test Example 3: herbicidal effect by foliage application, Wagner pot (Table 18, symbol E); format: in vivo, rice flat sedge (Cyperus iria); details: 320 g/ha
In short: as §1

southern crabgrass [2] = test: Test Example 4: herbicidal effect by soil treatment (Table 19, symbol F); format: in vivo, southern crabgrass (Digitaria ciliaris)
In short: (§2)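 Applied as a water-diluted emulsion, the compound was sprayed onto soil covering newly sown seeds. Evaluation came three weeks after application, in a greenhouse held at 25° C. to 30° C.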

green foxtail [3] = test: Test Example 4: herbicidal effect by soil treatment (Table 19, symbol G); format: in vivo, green foxtail (Setaria viridis)
In short: as §2

barnyard grass [4] = test: Test Example 4: herbicidal effect by soil treatment (Table 19, symbol H); format: in vivo, barnyard grass (Echinochloa crus-galli)
In short: as §2

wild oat [5] = test: Test Example 4: herbicidal effect by soil treatment (Table 19, symbol I); format: in vivo, wild oat (Avena fatua)
In short: as §2

blackgrass [6] = test: Test Example 4: herbicidal effect by soil treatment (Table 19, symbol J); format: in vivo, blackgrass (Alopecurus myosuroides)
In short: as §2

Italian ryegrass [7] = test: Test Example 4: herbicidal effect by soil treatment (Table 19, symbol K); format: in vivo, Italian ryegrass (Lolium multiflorum)
In short: as §2

windgrass [8] = test: Test Example 4: herbicidal effect by soil treatment (Table 19, symbol L); format: in vivo, windgrass (Apera spica-venti)
In short: as §2

velvetleaf [9] = test: Test Example 4: herbicidal effect by soil treatment (Table 19, symbol M); format: in vivo, velvetleaf (Abutilon theophrasti)
In short: as §2

redroot pigweed [10] = test: Test Example 4: herbicidal effect by soil treatment (Table 19, symbol N); format: in vivo, redroot pigweed (Amaranthus retroflexus)
In short: as §2

lambsquarters [11] = test: Test Example 4: herbicidal effect by soil treatment (Table 19, symbol O); format: in vivo, lambsquarters (Chenopodium album)
In short: as §2

chickweed [12] = test: Test Example 4: herbicidal effect by soil treatment (Table 19, symbol P); format: in vivo, common chickweed (Stellaria media)
In short: as §2

false cleavers = test: Test Example 4: herbicidal effect by soil treatment (Table 19, symbol Q); format: in vivo, false cleavers (Galium spurium)
In short: as §2

persian speedwell [13] = test: Test Example 4: herbicidal effect by soil treatment (Table 19, symbol R); format: in vivo, Persian speedwell (Veronica persica)
In short: as §2

southern crabgrass [14] = test: Test Example 5: herbicidal effect by foliage application, plastic box (Table 20, symbol F); format: in vivo, southern crabgrass (Digitaria ciliaris)
In short: (§3)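 Sow seeds spot-wise in sterilized diluvial soil; cover with ~1.5 cm soil. Grow 14 days in greenhouse, 25° C. to 30° C. Spray foliage with emulsion diluted to predetermined amount. Rate effect after 3 weeks.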

green foxtail [15] = test: Test Example 5: herbicidal effect by foliage application, plastic box (Table 20, symbol G); format: in vivo, green foxtail (Setaria viridis)
In short: as §3

barnyard grass [16] = test: Test Example 5: herbicidal effect by foliage application, plastic box (Table 20, symbol H); format: in vivo, barnyard grass (Echinochloa crus-galli)
In short: as §3

wild oat [17] = test: Test Example 5: herbicidal effect by foliage application, plastic box (Table 20, symbol I); format: in vivo, wild oat (Avena fatua)
In short: as §3

blackgrass [18] = test: Test Example 5: herbicidal effect by foliage application, plastic box (Table 20, symbol J); format: in vivo, blackgrass (Alopecurus myosuroides)
In short: as §3

Italian ryegrass [19] = test: Test Example 5: herbicidal effect by foliage application, plastic box (Table 20, symbol K); format: in vivo, Italian ryegrass (Lolium multiflorum)
In short: as §3

windgrass [20] = test: Test Example 5: herbicidal effect by foliage application, plastic box (Table 20, symbol L); format: in vivo, windgrass (Apera spica-venti); details: foliage application, AAH 320 g/ha, three weeks after application
In short: as §3

velvetleaf [21] = test: Test Example 5: herbicidal effect by foliage application, plastic box (Table 20, symbol M); format: in vivo, velvetleaf (Abutilon theophrasti)
In short: as §3

redroot pigweed [22] = test: Test Example 5: herbicidal effect by foliage application, plastic box (Table 20, symbol N); format: in vivo, redroot pigweed (Amaranthus retroflexus)
In short: as §3

lambsquarters [23] = test: Test Example 5: herbicidal effect by foliage application, plastic box (Table 20, symbol O); format: in vivo, lambsquarters (Chenopodium album)
In short: as §3

chickweed [24] = test: Test Example 5: herbicidal effect by foliage application, plastic box (Table 20, symbol P); format: in vivo, common chickweed (Stellaria media)
In short: as §3

persian speedwell [25] = test: Test Example 5: herbicidal effect by foliage application, plastic box (Table 20, symbol R); format: in vivo, Persian speedwell (Veronica persica)
In short: as §3

[26] = foliage application, AAH 320 g/ha, three weeks after application
[27] = amount of applied herbicide 320 g/ha
[28] = 320 g/ha, foliage application after 14-day growth, evaluated three weeks after application

## CCCC(=O)Oc1c(OC)nn(C)c(=O)c1-c1c(-c2ccc([N+](=O)[O-])cc2)sc2ccccc12 [1-169]
Barnyard grass [1]
  herbicidal effect on H (barnyard grass), rating 0-5: 1 (Herbicidal rate of 5% or more and less than 20%)
Chinese sprangletop
  herbicidal effect on D (Chinese sprangletop), rating 0-5: 0 (Herbicidal rate of 5% or less (almost no effect))
Rice flat sedge
  herbicidal effect on E (rice flat sedge), rating 0-5: 2 (Herbicidal rate of 20% or more and less than 40%)
Southern crabgrass [2]; AAH 320 g/ha
  F: southern crabgrass, herbicidal effect rating: 0 (Herbicidal rate of 5% or less (almost no effect))
Green foxtail [3]; AAH 320 g/ha
  G: green foxtail, herbicidal effect rating: 0 (Herbicidal rate of 5% or less (almost no effect))
Barnyard grass [4]; AAH 320 g/ha
  H: barnyard grass, herbicidal effect rating: 0 (Herbicidal rate of 5% or less (almost no effect))
Wild oat [5]; AAH 320 g/ha
  I: wild oat, herbicidal effect rating: 0 (Herbicidal rate of 5% or less (almost no effect))
Blackgrass [6]; AAH 320 g/ha
  J: blackgrass, herbicidal effect rating: 0 (Herbicidal rate of 5% or less (almost no effect))
Italian ryegrass [7]; AAH 320 g/ha
  K: Italian ryegrass, herbicidal effect rating: 0 (Herbicidal rate of 5% or less (almost no effect))
Windgrass [8]; AAH 320 g/ha
  L: windgrass, herbicidal effect rating: 0 (Herbicidal rate of 5% or less (almost no effect))
Velvetleaf [9]; AAH 320 g/ha
  M: velvetleaf, herbicidal effect rating: 0 (Herbicidal rate of 5% or less (almost no effect))
Redroot pigweed [10]; AAH 320 g/ha
  N: redroot pigweed, herbicidal effect rating: 0 (Herbicidal rate of 5% or less (almost no effect))
Lambsquarters [11]; AAH 320 g/ha
  O: lambsquarters, herbicidal effect rating: 0 (Herbicidal rate of 5% or less (almost no effect))
Chickweed [12]; AAH 320 g/ha
  P: chickweed, herbicidal effect rating: 1 (Herbicidal rate of 5% or more and less than 20%)
False cleavers; AAH 320 g/ha
  Q: false cleavers, herbicidal effect rating: 0 (Herbicidal rate of 5% or less (almost no effect))
Persian speedwell [13]; AAH 320 g/ha
  R: persian speedwell, herbicidal effect rating: 3 (Herbicidal rate of 40% or more and less than 70%)
Southern crabgrass [14]; [26]
  F: southern crabgrass, herbicidal effect: 0 (Herbicidal rate of 5% or less (almost no effect))
Green foxtail [15]; [26]
  G: green foxtail, herbicidal effect: 0 (Herbicidal rate of 5% or less (almost no effect))
Barnyard grass [16]; [26]
  H: barnyard grass, herbicidal effect: 0 (Herbicidal rate of 5% or less (almost no effect))
Wild oat [17]; [26]
  I: wild oat, herbicidal effect: 0 (Herbicidal rate of 5% or less (almost no effect))
Blackgrass [18]; [26]
  J: blackgrass, herbicidal effect: 0 (Herbicidal rate of 5% or less (almost no effect))
Italian ryegrass [19]; [26]
  K: Italian ryegrass, herbicidal effect: 0 (Herbicidal rate of 5% or less (almost no effect))
Windgrass [20]
  L: windgrass, herbicidal effect: 0 (Herbicidal rate of 5% or less (almost no effect))
Velvetleaf [21]; [26]
  M: velvetleaf, herbicidal effect: 0 (Herbicidal rate of 5% or less (almost no effect))
Redroot pigweed [22]; [26]
  N: redroot pigweed, herbicidal effect: 4 (Herbicidal rate of 70% or more and less than 90%)
Lambsquarters [23]; [26]
  O: lambsquarters, herbicidal effect: 4 (Herbicidal rate of 70% or more and less than 90%)
Chickweed [24]; [26]
  P: chickweed, herbicidal effect: 4 (Herbicidal rate of 70% or more and less than 90%)
Persian speedwell [25]; [26]
  R: persian speedwell, herbicidal effect: 4 (Herbicidal rate of 70% or more and less than 90%)

## COc1ccc(-c2sc3c(F)cccc3c2-c2c(O)c(C)nn(C)c2=O)cc1 [4-005]
Barnyard grass [1]
  herbicidal effect on barnyard grass (H): 4 (Herbicidal rate of 70% or more and less than 90%)
Chinese sprangletop
  herbicidal effect on Chinese sprangletop (D): 3 (Herbicidal rate of 40% or more and less than 70%)
Rice flat sedge
  herbicidal effect on rice flat sedge (E): 5 (Herbicidal rate of 90% or more (almost completely withered))
Southern crabgrass [2]; [27]
  Herbicidal effect by soil treatment, F: southern crabgrass: 0 (Herbicidal rate of 5% or less (almost no effect))
Green foxtail [3]; [27]
  Herbicidal effect by soil treatment, G: green foxtail: 5 (Herbicidal rate of 90% or more (almost completely withered))
Barnyard grass [4]; [27]
  Herbicidal effect by soil treatment, H: barnyard grass: 4 (Herbicidal rate of 70% or more and less than 90%)
Wild oat [5]; [27]
  Herbicidal effect by soil treatment, I: wild oat: 0 (Herbicidal rate of 5% or less (almost no effect))
Blackgrass [6]; [27]
  Herbicidal effect by soil treatment, J: blackgrass: 0 (Herbicidal rate of 5% or less (almost no effect))
Italian ryegrass [7]; [27]
  Herbicidal effect by soil treatment, K: Italian ryegrass: 0 (Herbicidal rate of 5% or less (almost no effect))
Windgrass [8]; [27]
  Herbicidal effect by soil treatment, L: windgrass: 0 (Herbicidal rate of 5% or less (almost no effect))
Velvetleaf [9]; [27]
  Herbicidal effect by soil treatment, M: velvetleaf: 0 (Herbicidal rate of 5% or less (almost no effect))
Redroot pigweed [10]; [27]
  Herbicidal effect by soil treatment, N: redroot pigweed: 0 (Herbicidal rate of 5% or less (almost no effect))
Lambsquarters [11]; [27]
  Herbicidal effect by soil treatment, O: lambsquarters: 4 (Herbicidal rate of 70% or more and less than 90%)
Chickweed [12]; [27]
  Herbicidal effect by soil treatment, P: chickweed: 4 (Herbicidal rate of 70% or more and less than 90%)
False cleavers; [27]
  Herbicidal effect by soil treatment, Q: false cleavers: 0 (Herbicidal rate of 5% or less (almost no effect))
Persian speedwell [13]; [27]
  Herbicidal effect by soil treatment, R: persian speedwell: 5 (Herbicidal rate of 90% or more (almost completely withered))
Southern crabgrass [14]; [28]
  herbicidal effect on F: southern crabgrass (evaluation grade 0-5): 0 (Herbicidal rate of 5% or less (almost no effect))
Green foxtail [15]; [28]
  herbicidal effect on G: green foxtail (evaluation grade 0-5): 5 (Herbicidal rate of 90% or more (almost completely withered))
Barnyard grass [16]; [28]
  herbicidal effect on H: barnyard grass (evaluation grade 0-5): 3 (Herbicidal rate of 40% or more and less than 70%)
Wild oat [17]; [28]
  herbicidal effect on I: wild oat (evaluation grade 0-5): 0 (Herbicidal rate of 5% or less (almost no effect))
Blackgrass [18]; [28]
  herbicidal effect on J: blackgrass (evaluation grade 0-5): 0 (Herbicidal rate of 5% or less (almost no effect))
Italian ryegrass [19]; [28]
  herbicidal effect on K: Italian ryegrass (evaluation grade 0-5): 4 (Herbicidal rate of 70% or more and less than 90%)
Velvetleaf [21]; [28]
  herbicidal effect on M: velvetleaf (evaluation grade 0-5): 3 (Herbicidal rate of 40% or more and less than 70%)
Redroot pigweed [22]; [28]
  herbicidal effect on N: redroot pigweed (evaluation grade 0-5): 3 (Herbicidal rate of 40% or more and less than 70%)
Lambsquarters [23]; [28]
  herbicidal effect on O: lambsquarters (evaluation grade 0-5): 3 (Herbicidal rate of 40% or more and less than 70%)
Chickweed [24]; [28]
  herbicidal effect on P: chickweed (evaluation grade 0-5): 5 (Herbicidal rate of 90% or more (almost completely withered))
Persian speedwell [25]; [28]
  herbicidal effect on R: persian speedwell (evaluation grade 0-5): 5 (Herbicidal rate of 90% or more (almost completely withered))
